Source: patent US8012939B2 (Tibotec Pharmaceuticals Ltd. Co, priority 2005, dated 2011)
Read-outs that look alike come from different tables or passages of the source.

Key:
[1] = rcm bond, Hoveyda-Grubbs 1st generation catalyst, 1,2-dichloroethane, 70.0 °C
[2] = system: HCV replicons (HCV type 1b, Huh-7 luc/neo cells); assay: Replicon assay (Huh-Luc cells, luciferase read-out); format: cell-based; settings: Hepatitis C virus, Huh-7, 72 h
Source text: The compounds of formula (I) were examined for activity in the inhibition of HCV RNA replication in a cellular assay. […] The cellular assay was based on a bicistronic expression construct, as described by Lohmann et al. (1999) Science vol. 285 pp. 110-113 with modifications described by Krieger et al. (2001) Journal of Virology 75: 4614-4624, in a multi-target screening strategy. In essence, the method was as follows.
The assay utilized the stably transfected cell line Huh-7 luc/neo (hereafter referred to as Huh-Luc). This cell line harbors an RNA encoding a bicistronic expression construct comprising the wild type NS3-NS5B regions of HCV type 1b translated from an Internal Ribosome Entry Site (IRES) from encephalomyocarditis virus (EMCV), preceded by a reporter portion (FfL-luciferase), and a selectable marker portion (neo^R, neomycine phosphotransferase). The construct is bordered by 5′ and 3′ NTRs (non-translated regions) from HCV type 1b. Continued culture of the replicon cells in the presence of G418 (neo^R) is dependent on the replication of the HCV RNA. The stably transfected replicon cells that express HCV RNA, which replicates autonomously and to high levels, encoding inter alia luciferase, are used for screening the antiviral compounds.
The replicon cells were plated in 384 well plates in the presence of the test and control compounds which were added in various concentrations. Following an incubation of three days, HCV replication was measured by assaying luciferase activity (using standard luciferase assay substrates and reagents and a Perkin Elmer ViewLux™ ultraHTS microplate imager). Replicon cells in the control cultures have high luciferase expression in the absence of any inhibitor. The inhibitory activity of the compound on luciferase activity was monitored on the Huh-Luc cells, enabling a doseresponse curve for each test compound.

[3] = molecular target: T1, HCV NS3/4A protease complexes (full-length hepatitis C NS3 protease enzyme with NS4A cofactor) (Hepatitis C virus genotype 1a, UniProt P27958); assay: Inhibition assay (enzymatic assay, depsipeptide substrate hydrolysis); format: biochemical; settings: enzyme 1 nM, 25 μM NS4A cofactor, 0.5 μM substrate, 30° C., pH 7.5, model for competitive inhibition
T1 construct: full-length hepatitis C NS3 protease enzyme
Procedure: [Landro, 1997 #Biochem 36 9340-9348]. […] The solutions were stored at −20° C. between measurements.
[Liu, 1999 Analytical Biochemistry 267 331-335].

[4] = Huh-Luc cells, incubation of three days, luciferase activity

T1 sequence (P27958 1027-1657, one chain of several): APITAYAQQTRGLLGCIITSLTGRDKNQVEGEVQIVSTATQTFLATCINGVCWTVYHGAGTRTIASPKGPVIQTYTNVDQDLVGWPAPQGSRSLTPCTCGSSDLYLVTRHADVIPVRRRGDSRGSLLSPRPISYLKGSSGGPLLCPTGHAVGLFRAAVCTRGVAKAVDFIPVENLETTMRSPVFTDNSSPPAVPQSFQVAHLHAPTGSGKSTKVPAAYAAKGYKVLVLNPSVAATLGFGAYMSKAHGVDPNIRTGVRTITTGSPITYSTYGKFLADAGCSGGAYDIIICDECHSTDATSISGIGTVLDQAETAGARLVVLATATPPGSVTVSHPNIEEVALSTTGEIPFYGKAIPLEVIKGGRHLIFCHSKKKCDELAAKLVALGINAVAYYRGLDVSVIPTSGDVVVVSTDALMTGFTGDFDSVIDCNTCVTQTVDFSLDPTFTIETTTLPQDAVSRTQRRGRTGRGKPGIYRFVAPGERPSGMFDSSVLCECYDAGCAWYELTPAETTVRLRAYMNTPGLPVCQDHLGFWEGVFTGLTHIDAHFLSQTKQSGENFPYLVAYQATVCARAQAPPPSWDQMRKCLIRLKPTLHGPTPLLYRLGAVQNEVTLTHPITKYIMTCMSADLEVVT

Structure (SMILES): CCOC(=O)C12CC1C=CCCCCN(C)C(=O)C1CC(Oc3nc(-c4nc(C5CC5)cs4)cc4cc(OC)ccc34)CC1C(=O)N2 (centres unmarked)
- ring closure, yield of all isomers ([1]; from C=CCCCCN(C)C(=O)C1CC(Oc2nc(-c3nc(C4CC4)cs3)cc3cc(OC)ccc23)CC1C(=O)NC1(C(=O)OCC)CC1C=C, 0.8 mM, 12.0 h): 85%

Structure (SMILES): CCOC(=O)C12CC1C=CCCCCN(C)C(=O)N1CC(OC(=O)c3ccc([N+](=O)[O-])cc3)CC1C(=O)N2 (centres unmarked)
- ring closure, yield of all isomers ([1]; from C=CCCCCN(C)C(=O)N1CC(OC(=O)c2ccc([N+](=O)[O-])cc2)CC1C(=O)NC1(C(=O)OCC)CC1C=C, 1.64 mM, 20.0 h): 51%

Structure (SMILES): CCOC(=O)C12CC1C=CCCCCN(C)C(=O)N1CC(Oc3nc(Cl)cc4cc(OC)ccc34)CC1C(=O)N2 (centres unmarked)
- ring closure, yield of all isomers ([1]; from C=CCCCCN(C)C(=O)N1CC(Oc2nc(Cl)cc3cc(OC)ccc23)CC1C(=O)NC1(C(=O)OCC)CC1C=C, 2.17 mM, 20.0 h): 58%

Structure (SMILES): CCOC(=O)C12CC1C=CCCCCN(C)C(=O)N1CC(Oc3ncc(Br)c4cc(OC)ccc34)CC1C(=O)N2 (centres unmarked)
- ring closure, yield of all isomers ([1]; from C=CCCCCN(C)C(=O)N1CC(Oc2ncc(Br)c3cc(OC)ccc23)CC1C(=O)NC1(C(=O)OCC)CC1C=C, 1.55 mM, 20.0 h): 38%

Structure (SMILES): COc1ccc2c(O[C@@H]3C[C@H]4C(=O)N[C@]5(C(=O)NS(=O)(=O)C6CC6)C[C@H]5/C=C\CCCCN(C)C(=O)N4C3)nc(-c3ccccc3)cc2c1 [Compound 56, N-[17-(3-phenyl-6-methoxyisoquinolin-1-yloxy)-13-methyl-2,14-dioxo-3,13,15-triaza-tricyclo[13.3.0.0^4,6]octadec-7-ene-4-carbonyl](cyclopropyl) sulfonamide]
- EC50 [2]: 1.03 µM
- Ki [3]: 0.0011 µM

Structure (SMILES): COc1ccc2c(O[C@@H]3C[C@H]4C(=O)N[C@]5(C(=O)O)C[C@H]5/C=C\CCCCN(C)C(=O)N4C3)nc(-c3ccc(OC(F)(F)F)cc3)cc2c1 [Compound 57, 17-(3-(4-trifluoromethoxyphenyl)-6-methoxyisoquinolin-1-yloxy)-13-methyl-2,14-dioxo-3,13,15-triaza-tricyclo[13.3.0.0^4,6]octadec-7-ene-4-carboxylic acid]
- EC50 [2, 4]: 8.09 µM
- Ki [3]: 0.21 µM

Structure (SMILES): COc1ccc2c(O[C@@H]3C[C@H]4C(=O)N[C@]5(C(=O)O)C[C@H]5/C=C\CCCCN(C)C(=O)N4C3)nc(-n3cccn3)cc2c1 [Compound 67, 17-(3-pyrazol-1-yl-6-methoxyisoquinolin-1-yloxy)-13-methyl-2,14-dioxo-3,13,15-triaza-tricyclo[13.3.0.0^4,6]octadec-7-ene-4-carboxylic acid]
- EC50 [2, 4]: > 10 µM
- Ki [3]: > 1 µM

Structure (SMILES): COc1ccc2c(O[C@@H]3C[C@H]4C(=O)N[C@]5(C(=O)NS(=O)(=O)C6CC6)C[C@H]5/C=C\CCCCN(C)C(=O)N4C3)nc(-n3cccn3)cc2c1 [Compound 68, N-[17-(3-pyrazol-1-yl-6-methoxyisoquinolin-1-yloxy)-13-methyl-2,14-dioxo-3,13,15-triaza-tricyclo[13.3.0.0^4,6]octadec-7-ene-4-carbonyl](cyclopropyl)sulfonamide]
- EC50 [2, 4]: 0.165 µM
- Ki [3]: 0.0025 µM

Structure (SMILES): COc1ccc2c(O[C@@H]3C[C@H]4C(=O)N[C@]5(C(=O)NS(=O)(=O)C6CC6)C[C@H]5/C=C\CCCCN(C)C(=O)N4C3)nc(-c3nc(C(C)C)cs3)cc2c1 [Compound 70, N-[17-[3-(4-isopropylthiazol-2-yl)-6-methoxyisoquinolin-1-yloxy]-13-methyl-2,14-dioxo-3,13,15-triaza-tricyclo[13.3.0.0^4,6]octadec-7-ene-4-carbonyl](cyclopropyl)sulfonamide]
- EC50 [2, 4]: 6.73 µM
- Ki [3]: 0.033 µM
